Some targets named below: D(1A) dopamine receptor (Homo sapiens, UniProt P21728); Histamine H2 receptor (Homo sapiens, UniProt P25021); Substance-P receptor (Homo sapiens, UniProt P25103).
Another experiment concerns the target T1, Adenosine receptor A1 (Homo sapiens, UniProt P30542).
T1 sequence (P30542 whole entry): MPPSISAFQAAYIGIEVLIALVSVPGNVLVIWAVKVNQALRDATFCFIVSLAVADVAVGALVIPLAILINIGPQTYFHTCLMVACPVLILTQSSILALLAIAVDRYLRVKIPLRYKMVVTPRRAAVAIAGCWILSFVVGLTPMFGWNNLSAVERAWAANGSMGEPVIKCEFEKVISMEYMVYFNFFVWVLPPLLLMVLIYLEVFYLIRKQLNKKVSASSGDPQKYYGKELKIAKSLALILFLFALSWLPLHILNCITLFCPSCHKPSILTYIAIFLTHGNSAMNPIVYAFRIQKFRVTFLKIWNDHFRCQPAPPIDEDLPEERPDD

Experiment [1] addresses T2, Histamine H1 receptor (Homo sapiens, UniProt P35367). Type of experiment: functional, cell-based.
In experiment [2] the target is T2, Histamine H1 receptor. Type of experiment: functional, cell-based. This is another data set of the same source.
The target of experiment [3] is T3, Androgen receptor (Rattus norvegicus, UniProt P15207).
T3 sequence (P15207 whole entry): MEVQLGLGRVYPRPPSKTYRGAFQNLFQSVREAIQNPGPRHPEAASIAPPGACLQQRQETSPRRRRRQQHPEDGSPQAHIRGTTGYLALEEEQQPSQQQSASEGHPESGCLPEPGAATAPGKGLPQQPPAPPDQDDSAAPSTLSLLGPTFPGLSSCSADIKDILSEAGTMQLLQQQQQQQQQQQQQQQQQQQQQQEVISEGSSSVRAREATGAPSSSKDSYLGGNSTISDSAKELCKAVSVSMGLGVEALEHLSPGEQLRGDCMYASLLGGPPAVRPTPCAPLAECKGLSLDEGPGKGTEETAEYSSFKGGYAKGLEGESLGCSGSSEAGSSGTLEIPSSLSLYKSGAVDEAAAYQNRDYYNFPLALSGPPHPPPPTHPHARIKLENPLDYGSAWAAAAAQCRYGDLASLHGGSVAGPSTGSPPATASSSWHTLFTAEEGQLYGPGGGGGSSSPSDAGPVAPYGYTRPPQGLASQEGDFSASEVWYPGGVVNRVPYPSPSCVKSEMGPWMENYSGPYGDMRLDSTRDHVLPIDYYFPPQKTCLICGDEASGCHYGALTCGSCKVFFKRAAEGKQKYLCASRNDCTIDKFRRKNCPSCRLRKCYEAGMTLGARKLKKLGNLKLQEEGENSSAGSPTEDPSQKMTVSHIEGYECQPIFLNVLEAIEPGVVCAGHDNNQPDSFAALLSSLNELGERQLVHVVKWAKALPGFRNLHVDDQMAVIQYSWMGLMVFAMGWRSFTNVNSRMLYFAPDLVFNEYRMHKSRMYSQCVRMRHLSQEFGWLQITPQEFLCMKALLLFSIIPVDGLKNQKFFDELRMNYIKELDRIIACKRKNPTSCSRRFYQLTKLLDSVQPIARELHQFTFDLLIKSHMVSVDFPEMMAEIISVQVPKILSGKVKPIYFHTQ
Type of experiment: functional.

For experiment [4], the target named is T3, Androgen receptor. Format: functional. This is another data set of the same source.
The target of experiment [5] is T4, Peroxisome proliferator-activated receptor gamma (Homo sapiens, UniProt P37231).
T4 sequence (P37231 whole entry): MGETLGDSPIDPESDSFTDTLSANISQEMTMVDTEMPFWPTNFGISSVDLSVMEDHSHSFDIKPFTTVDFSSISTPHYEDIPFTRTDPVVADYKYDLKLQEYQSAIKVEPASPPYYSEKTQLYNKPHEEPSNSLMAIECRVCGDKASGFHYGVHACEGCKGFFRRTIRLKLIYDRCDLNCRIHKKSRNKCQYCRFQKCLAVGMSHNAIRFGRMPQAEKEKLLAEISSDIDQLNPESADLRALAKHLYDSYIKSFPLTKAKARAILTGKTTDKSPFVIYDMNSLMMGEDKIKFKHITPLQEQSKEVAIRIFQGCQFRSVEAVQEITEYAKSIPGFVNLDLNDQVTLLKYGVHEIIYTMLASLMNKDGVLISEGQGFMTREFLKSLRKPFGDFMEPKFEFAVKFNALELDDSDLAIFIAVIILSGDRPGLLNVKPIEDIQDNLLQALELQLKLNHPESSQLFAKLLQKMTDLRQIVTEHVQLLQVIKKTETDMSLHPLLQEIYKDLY
Type of experiment: functional.

For experiment [6], the target named is T5, Alpha-1A adrenergic receptor (Homo sapiens, UniProt P35348).
T5 sequence (P35348 whole entry): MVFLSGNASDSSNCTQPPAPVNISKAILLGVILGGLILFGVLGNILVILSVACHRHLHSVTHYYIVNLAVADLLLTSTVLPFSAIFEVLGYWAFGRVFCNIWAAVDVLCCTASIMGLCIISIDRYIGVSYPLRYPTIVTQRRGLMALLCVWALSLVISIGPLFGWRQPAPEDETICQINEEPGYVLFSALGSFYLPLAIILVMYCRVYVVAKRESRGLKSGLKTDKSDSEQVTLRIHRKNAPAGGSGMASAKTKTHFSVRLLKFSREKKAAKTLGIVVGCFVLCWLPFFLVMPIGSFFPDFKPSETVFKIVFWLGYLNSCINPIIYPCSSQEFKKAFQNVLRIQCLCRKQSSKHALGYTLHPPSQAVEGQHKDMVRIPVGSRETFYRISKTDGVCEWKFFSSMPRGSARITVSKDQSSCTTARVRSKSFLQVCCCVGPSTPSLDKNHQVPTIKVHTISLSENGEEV

The target of a further experiment is T6, D(4) dopamine receptor (Homo sapiens, UniProt P21917).
T6 sequence (P21917 whole entry): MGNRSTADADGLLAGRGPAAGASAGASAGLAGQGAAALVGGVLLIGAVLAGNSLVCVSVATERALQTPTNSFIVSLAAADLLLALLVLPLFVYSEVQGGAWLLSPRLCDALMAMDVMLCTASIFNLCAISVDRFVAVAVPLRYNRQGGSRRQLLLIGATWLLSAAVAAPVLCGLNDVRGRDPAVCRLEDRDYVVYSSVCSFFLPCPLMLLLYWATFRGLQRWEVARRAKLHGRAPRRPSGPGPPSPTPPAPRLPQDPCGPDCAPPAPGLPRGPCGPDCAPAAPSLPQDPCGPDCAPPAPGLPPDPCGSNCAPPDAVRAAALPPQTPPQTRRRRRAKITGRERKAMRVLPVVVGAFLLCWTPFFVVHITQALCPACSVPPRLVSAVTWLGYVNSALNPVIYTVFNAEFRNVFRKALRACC

The values below come from ChEMBL document CHEMBL5291721, “A preclinical secondary pharmacology resource illuminates target-adverse drug reaction associations of marketed drugs” (Nat Commun, 2023).
Further: assay procedure not described here.

Chain of D(1A) dopamine receptor (P21728 whole entry): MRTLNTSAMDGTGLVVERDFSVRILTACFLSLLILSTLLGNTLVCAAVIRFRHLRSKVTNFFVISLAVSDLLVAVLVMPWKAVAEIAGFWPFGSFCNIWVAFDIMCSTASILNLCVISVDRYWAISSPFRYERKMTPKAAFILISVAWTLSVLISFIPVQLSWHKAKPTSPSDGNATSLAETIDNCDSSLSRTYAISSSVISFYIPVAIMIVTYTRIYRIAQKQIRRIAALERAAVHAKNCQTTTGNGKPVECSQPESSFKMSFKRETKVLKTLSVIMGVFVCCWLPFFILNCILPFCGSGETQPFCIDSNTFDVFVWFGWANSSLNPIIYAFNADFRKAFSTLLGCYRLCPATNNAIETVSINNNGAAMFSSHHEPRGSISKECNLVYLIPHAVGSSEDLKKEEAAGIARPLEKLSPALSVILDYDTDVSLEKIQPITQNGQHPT
Chain of Substance-P receptor (P25103 whole entry): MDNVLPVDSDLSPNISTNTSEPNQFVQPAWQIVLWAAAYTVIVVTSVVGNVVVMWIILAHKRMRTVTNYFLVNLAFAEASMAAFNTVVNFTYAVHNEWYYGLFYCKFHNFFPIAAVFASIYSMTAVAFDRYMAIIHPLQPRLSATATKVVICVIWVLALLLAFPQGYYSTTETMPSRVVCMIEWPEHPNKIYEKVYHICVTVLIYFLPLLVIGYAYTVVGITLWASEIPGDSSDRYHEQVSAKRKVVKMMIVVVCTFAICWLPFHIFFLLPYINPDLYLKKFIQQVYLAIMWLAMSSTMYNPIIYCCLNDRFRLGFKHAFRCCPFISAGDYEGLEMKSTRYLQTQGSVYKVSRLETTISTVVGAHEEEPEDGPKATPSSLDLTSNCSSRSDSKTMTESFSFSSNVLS
T2 sequence (P35367 whole entry): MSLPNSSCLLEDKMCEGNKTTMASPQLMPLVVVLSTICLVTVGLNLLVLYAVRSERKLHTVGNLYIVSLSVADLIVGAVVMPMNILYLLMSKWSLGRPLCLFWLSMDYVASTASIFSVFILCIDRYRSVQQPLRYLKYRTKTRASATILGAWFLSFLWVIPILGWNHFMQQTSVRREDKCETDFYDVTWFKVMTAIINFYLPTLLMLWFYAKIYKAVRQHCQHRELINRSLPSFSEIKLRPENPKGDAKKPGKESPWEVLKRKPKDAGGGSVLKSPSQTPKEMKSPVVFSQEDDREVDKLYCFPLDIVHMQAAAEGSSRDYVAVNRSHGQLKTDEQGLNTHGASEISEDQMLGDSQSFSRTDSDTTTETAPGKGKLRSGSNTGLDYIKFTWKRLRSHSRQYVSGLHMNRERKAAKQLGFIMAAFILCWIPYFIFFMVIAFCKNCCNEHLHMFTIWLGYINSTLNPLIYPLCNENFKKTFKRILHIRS
Chain of Histamine H2 receptor (P25021 whole entry): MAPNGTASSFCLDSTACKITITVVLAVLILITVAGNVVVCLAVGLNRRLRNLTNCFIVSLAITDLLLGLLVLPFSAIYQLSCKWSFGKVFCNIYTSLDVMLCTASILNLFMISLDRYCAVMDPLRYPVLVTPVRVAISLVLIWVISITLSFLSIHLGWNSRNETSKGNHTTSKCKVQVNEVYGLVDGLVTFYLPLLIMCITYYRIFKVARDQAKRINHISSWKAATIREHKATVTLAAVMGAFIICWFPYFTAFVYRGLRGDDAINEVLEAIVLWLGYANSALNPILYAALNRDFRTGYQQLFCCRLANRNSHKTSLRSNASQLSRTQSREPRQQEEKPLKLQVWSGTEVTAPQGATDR

For the molecule `CCC[C@H](NC(=O)[C@@H]1[C@H]2CCC[C@H]2CN1C(=O)[C@@H](NC(=O)[C@@H](NC(=O)c1cnccn1)C1CCCCC1)C(C)(C)C)C(=O)C(=O)NC1CC1`, the AC50 at D(1A) dopamine receptor and on Histamine H2 receptor was more than 10 µM throughout.
Take `CCOC(=O)[C@H](CCc1ccccc1)N[C@@H](C)C(=O)N(CC(=O)O)C1Cc2ccccc2C1`: on Adenosine receptor A1, the half-maximal activity concentration (AC50) (commonly the concentration giving half of the maximal activity seen) was more than 30 µM.
In the case of `CC(=O)N[C@@H](CS)C(=O)O` [ACETYLCYSTEINE], the AC50 at Histamine H1 receptor [1] and on Histamine H1 receptor [2] was more than 30 µM each time.
`C=CCNc1nc(NCC=C)nc(N2CCN(C(c3ccc(F)cc3)c3ccc(F)cc3)CC2)n1` [ALMITRINE]: the AC50 at Androgen receptor [3] and on Androgen receptor [4] was more than 30 µM each time.
For `CN1CCC(=C2c3ccccc3CCc3cccnc32)CC1` [AZATADINE], the AC50 was more than 30 µM on Histamine H1 receptor [1] and 0.0665 µM on Histamine H1 receptor [2].
In the case of `CC(C)COCC(CN(Cc1ccccc1)c1ccccc1)N1CCCC1` (centres undefined) [BEPRIDIL], the AC50 in experiment [5] was more than 30 µM.
On the same count and under the same terms, then `C/N=C(\NC)NCc1ccccc1` [BETHANIDINE], with more than 30 µM.
Regarding `CCC(C)C1(CC)C(=O)NC(=O)NC1=O` (centres undefined) [BUTABARBITAL], the AC50 (at Androgen receptor [3]; at Androgen receptor [4]; in [5]) was more than 30 µM in each case.
With `COCC1=C(C(=O)O)N2C(=O)[C@@H](NC(=O)/C(=N\OC)c3csc(N)n3)[C@H]2SC1` [CEFPODOXIME], the AC50 at Androgen receptor [3] and on Androgen receptor [4] was more than 30 µM each time.
At Adenosine receptor A1, `CC(=O)O[C@]1(C(C)=O)CC[C@H]2[C@@H]3C=C(Cl)C4=CC(=O)CC[C@]4(C)[C@H]3CC[C@@]21C` [CHLORMADINONE ACETATE] registered an AC50 of more than 30 µM.
Turning to `O=C(O)c1cn(C2CC2)c2cc(N3CCNCC3)c(F)cc2c1=O` [CIPROFLOXACIN], the AC50 on Substance-P receptor is more than 10 µM; on Adenosine receptor A1, more than 30 µM.
In turn, `CCN(CC)C(=S)S` [DITIOCARB] had an AC50 at Adenosine receptor A1 of more than 30 µM.
Turning to `CC(CCc1ccc(O)cc1)NCCc1ccc(O)c(O)c1` (centres undefined) [DOBUTAMINE], the AC50 was more than 10 µM at D(1A) dopamine receptor; more than 10 µM at Substance-P receptor; 0.0704 µM in experiment [6]; more than 10 µM at Histamine H2 receptor; 2.42 µM at D(4) dopamine receptor.
`C=C1CC[C@H](O)C/C1=C/C=C1\CCC[C@]2(C)[C@@H]([C@H](C)/C=C/[C@H](C)C(C)C)CC[C@@H]12` [ERGOCALCIFEROL] returned an AC50 on Adenosine receptor A1 of more than 30 µM.
As for `CCC(=O)O[C@]1(C(=O)SCF)[C@H](C)C[C@H]2[C@@H]3C[C@H](F)C4=CC(=O)C=C[C@]4(C)[C@@]3(F)[C@@H](O)C[C@@]21C` [FLUTICASONE PROPIONATE], the AC50 (on D(1A) dopamine receptor; at Substance-P receptor; in experiment [6]; at Histamine H2 receptor; on D(4) dopamine receptor) was more than 10 µM throughout.
With `Cc1cnc(C(=O)NCCc2ccc(S(=O)(=O)NC(=O)NC3CCCCC3)cc2)cn1` [GLIPIZIDE], the AC50 at Substance-P receptor was more than 10 µM; in experiment [6] it was more than 10 µM; on Adenosine receptor A1 it was more than 30 µM; on Histamine H2 receptor, more than 10 µM; on D(4) dopamine receptor, more than 10 µM.
With `CC(C)NCC(O)c1ccc(O)c(O)c1` (centres undefined) [ISOPROTERENOL], the AC50 on D(1A) dopamine receptor, at Substance-P receptor, on Histamine H2 receptor and on D(4) dopamine receptor was more than 10 µM in each case.
Regarding `Oc1ccc2c(c1)CC[C@H](c1ccccc1)[C@@H]2c1ccc(OCCN2CCCC2)cc1` [LASOFOXIFENE], the AC50 was 23 µM on Androgen receptor [3], more than 30 µM on Androgen receptor [4] and 18 µM in [5].
Take `CN1CCN(C2=Nc3ccccc3Oc3ccc(Cl)cc32)CC1` [LOXAPINE]: the AC50 is 0.102 µM on D(1A) dopamine receptor, more than 10 µM at Substance-P receptor, 0.169 µM in [6] and 0.0144 µM on D(4) dopamine receptor.
Consider `OC1(c2ccc(Cl)cc2)c2ccccc2C2=NCCN21` (centres undefined) [MAZINDOL], for which the AC50 at D(1A) dopamine receptor was more than 10 µM; on Substance-P receptor it was more than 10 µM; on Androgen receptor [3], more than 30 µM; in experiment [6], more than 10 µM; on Androgen receptor [4] it was more than 30 µM; on Histamine H2 receptor, more than 10 µM. Also, the AC50 on D(4) dopamine receptor was more than 10 µM.
With `CC12CC3CC(C)(C1)CC(N)(C3)C2` [MEMANTINE], the AC50 on Histamine H1 receptor [1] and on Histamine H1 receptor [2] was more than 30 µM throughout.
For `CN(C)CCCNc1c2ccccc2nc2cccc([N+](=O)[O-])c12` [NITRACRINE], the AC50 at Androgen receptor [3] and at Androgen receptor [4] was more than 30 µM throughout.
Turning to `CCOC(=O)C1=C(C)NC(C)=C(C(=O)OC)C1c1cccc([N+](=O)[O-])c1` (centres undefined) [NITRENDIPINE], the AC50 at D(1A) dopamine receptor and at Histamine H2 receptor was more than 10 µM throughout.
On to `O=[N+]([O-])c1ccc(O)c2ncccc12` [NITROXOLINE], for which the AC50 on Adenosine receptor A1 was more than 30 µM.
As for `[H]/N=C(/N)N/C(=N/[H])NCCc1ccccc1` [PHENFORMIN], the AC50 on D(1A) dopamine receptor and on Histamine H2 receptor was more than 10 µM each time.
For `CC(N)C(O)c1ccccc1` (centres undefined) [PHENYLPROPANOLAMINE], the AC50 (at D(1A) dopamine receptor; on Substance-P receptor; in experiment [6]; at Histamine H2 receptor; on D(4) dopamine receptor) was more than 10 µM in each case.
With `Clc1ccc2c(N3CCN(CCCN4CCN(c5ccnc6cc(Cl)ccc56)CC4)CC3)ccnc2c1` [PIPERAQUINE], the AC50 at Androgen receptor [3] and at Androgen receptor [4] was more than 30 µM each time.
The molecule `CC[C@@H]([C@H](C)O)n1ncn(-c2ccc(N3CCN(c4ccc(OC[C@@H]5CO[C@@](Cn6cncn6)(c6ccc(F)cc6F)C5)cc4)CC3)cc2)c1=O` [POSACONAZOLE] yielded an AC50 on Adenosine receptor A1 of more than 30 µM.
At Histamine H2 receptor, `CCCN[C@H]1CCc2nc(N)sc2C1` [PRAMIPEXOLE] had an AC50 of 3.86 µM.
Take `Cc1cccc(N2CC(CO)OC2=O)c1` (centres undefined) [TOLOXATONE]: the AC50 at Androgen receptor [3] and at Androgen receptor [4] was more than 30 µM throughout.
